Legend:
[1] = system: PBMC from HIV seropositive subjects; assay: Intracellular cAMP in PBMC from HIV seropositive subjects; type: cell-based, human; settings: 10 ng/ml for 10 min; decreased from 5.3
Procedure: The compound 2′,5′ dideoxyadenosine (ddAdo) inhibits adenylate cyclase, the enzyme responsible for the generation of cAMP, by competition for the “P”-binding site (Johnson, J Biochem (1990) 265:11595-11600). […] In one such experiment (FIG. 9A), the intracellular cAMP level decreased to normal levels within 4 hours and remained at this level when tested after 20 hours. The effect of ddAdo was compared with two other adenylate cyclase inhibitors which are naturally occurring adenosine phosphates. When used in equal concentrations, the three inhibitors gave similar reductions in intracellular CAMP levels. For example, when added in 10 ng/ml for 10 min, ddAdo decreased the CAMP levels from 5.3 pmol/10^6 PBMC to 3.6; 3′ AMP to 3.5; and 2′,3′deoxy-AMP reduced the level to 3.2 pmol/10^6 PBMC.
cAMP was determined using a commercial scintillation proximity RIA (Amersham, Arlington Heights, Ill.) following the manufacturer's protocol. PKA activity was determined using a kit from Gibco (Grand Island, N.Y.) and the manufacturer's protocol. For the cAMP assay, cells were lysed and sonicated in assay buffer (provided with the kits). Proliferative assays were performed as described above.
Further purification was achieved by reverse phase chromatography. 3 ml of above solution was applied on C18 Sep-Pak cartridge (Waters) equilibrated with water+0.1% TFA. The column was washed with H2O-TFA until absorbance at 280nm reached baseline. Bound material was eluted from the column by stepwise elution with H2O-acetonitrile-TFA mixtures. There were three peaks on elution curve at 20%, 40% and 70% acetonitrile. The effluent from the above step was rechromatographed again on C18 cartridge and yielded additional quantities of the three products. […] Fraction 2 was added in various PBS dilutions to lymphocytes from HIV seropositive subjects. cAMP was then measured on lysates of these cells after 1 hour.

normal PBMC = assay: PHA-induced proliferation of normal PBMC, 3H-thymidine uptake; type: cell-based, human; settings: for ^3H-Thy. Incorp.: PHA alone 254.2 ± 9.0
Procedure: Peripheral blood mononuclear cells (PBMC) from healthy blood donors were isolated by Lymphoprep (Nyegaard and Co., Oslo, Norway) density gradient centrifugation. Cell cultures were prepared in Eppendorf tubes and contained 5-10×10^6 cells/ml for phosphotyrosine experiments and 2-5×10^6 cells/ml for the kinase experiments and the cAMP determinations described below. The concentration of PHA added per tube was 10 μg/ml of PHA-P (Wellcome, Beckenham, England). Phorbol 12 myristate-13 acetate (PMA) (P-8139, Sigma, St. Louis, Mo.) was dissolved in dimethylsulfoxide (DMSO) and used in optimal concentrations of 200 ng/ml. The total volume per tube was 1 ml.
(§1) Proliferative assays were performed as previously described (see, for example, Hofmann, B., et al., Cell Immunol (1989) 121:336-48. Briefly, one microcurie ^3H-thymidine was added to cultures 72 hours after stimulation, and after further 24 hours, all cultures were harvested on glass fiber filters with an automatic harvesting machine (Skatron, Lierbyen, Norway), and the incorporated radioactivity was measured in a liquid scintillation counter (Beckman LS 1800) after an addition of 1.5 ml scintillation fluid.
The concentration of Cholera toxoid was 10-0.2 μg/ml and 8-bromoadenosine 3′,5′ cyclic monophosphate (Br-cAMP) was 40-0.2 μg/ml. […] The PTK inhibitor Tyrphostin 25 (Bimol, Plymouth, Pa.) was used in a concentration of 1.0 μg/ml. Tyrphostin 25 has more than 30 fold higher affinity for PTK than for PKC and PKA. HIV components were added to final dilutions of 108-360 μg p24 antigen/mi.
Both Cholera toxoid or Br-cAMP impaired PHA-induced cell proliferation as measured by ^3H-thymidine uptake after 3 days of culture (Table 1). The 50% impairment of proliferation induced by HIV components is similar to the 50% impairment induced by 0.63 μg/ml of Cholera toxoid or […] of Br-cAMP. The experiment confirmed that cAMP impairs PHA-induced proliferation of T lymphocytes.

membrane PKC activity = assay: Membrane PKC activity in PBMC; type: cell-based, human
Procedure: The reagents were obtained as a kit from Gibco (Grand island, N.Y.) and the manufacturer's protocol was followed. After activation, cell membrane fractions were then obtained by ultracentrifugation (100,000 g for one hour at 4° C.) of sonicated cell lysates without detergent. Membrane fractions were then sonicated in the presence of 0.05% Triton X and the specific PKC activities were determined. Specific PKC activity was determined as the difference between phosphorylation of a PKC specific substrate with and without a specific PKC inhibitor present. The specific PKC substrate was a synthetic peptide from myelin basic protein with an acetylated N-terminal glutamine. The specific PKC inhibitor was a pseudo-substrate peptide which specifically binds to the pseudo-substrate region of the regulatory domain of PKC. The reaction mixture was spotted on cellulose paper, non-bound ^32P-ATP was removed by washing, and the paper discs were counted in a β counter after addition of scintillation fluid. The amounts of lysate over which the assay was linear were determined in initial experiments. All experiments were repeated 2-5 times.

PKA = PKA (Homo sapiens, UniProt P17612); settings: cited from earlier work
[2] = system: PBMC from an HIV seropositive subject; assay: Proliferative response to PHA of PBMC from HIV seropositive subjects; type: cell-based, human
Procedure: as §1

PTK = settings: cited from earlier work
[3] = cells not stimulated (control), without inhibitor 1.3 ± 0.2
[4] = cells stimulated by HIV, without inhibitor 3.0 ± 0.2
[5] = cells stimulated by PHA, without inhibitor 4.2 ± 1.6

Compound 2′,3′deoxy-AMP has a cAMP levels [1] of 3.2 pmol/10^6 PBMC.

With `Nc1ncnc2c1ncn2[C@@H]1O[C@H](CO)[C@@H](OP(=O)(O)O)[C@H]1O` [3′ AMP] the cAMP levels [1] was 3.5 pmol/10^6 PBMC.

In the case of `Nc1ncnc2c1nc(Br)n2[C@@H]1O[C@@H]2COP(=O)(O)O[C@H]2[C@H]1O` [Br-cAMP, 8-bromoadenosine 3′,5′ cyclic monophosphate], the “Concentration inducing 50% impairment of PHA-induced proliferation” value (normal PBMC; 3 days of culture) is reported as 200 µg/mL, the “Activity, percentage of activity of PHA control” value (from here on “Activity, percentage”) (normal PBMC; PHA + 100 μg/ml) is reported as 66% and the “^3H-Thy. Incorp.” value (normal PBMC; PHA + 100 μg/ml) is reported as 168.7 ± 21.9 cpm ×10^−6. For the same compound, the “Activity, percentage” value (normal PBMC; PHA + 200 μg/ml) was 38%, the “^3H-Thy. Incorp.” value (normal PBMC; PHA + 200 μg/ml) was 96.3 ± 14.4 cpm ×10^−6 and the “Activity, percentage” value (normal PBMC; PHA + 400 μg/ml) was 16%. For the same compound, the “^3H-Thy. Incorp.” value (normal PBMC; PHA + 400 μg/ml) was 41.6 ± 2.1 cpm ×10^−6, the PKC membrane activity (membrane PKC activity; [3]) was 3.9 ± 1.7 nM of ^32P/minute/10^6 PBMC and the PKC membrane activity (membrane PKC activity; [4]) was 2.2 ± 1.5 nM of ^32P/minute/10^6 PBMC. For the same compound, the PKC membrane activity (membrane PKC activity; [5]) was 2.1 ± 1.6 nM of ^32P/minute/10^6 PBMC.

In the case of `O=S(=O)(NCCNC/C=C/c1ccc(Br)cc1)c1cccc2cnccc12` [H-89], the “Fold higher affinity for PKA than for PKC” value (PKA) is listed as 660 fold, the PKC membrane activity (membrane PKC activity; [3]) is listed as 6.0 ± 1.9 nM of ^32P/minute/10^6 PBMC and the PKC membrane activity (membrane PKC activity; [4]) is listed as 12.9 ± 4.7 nM of ^32P/minute/10^6 PBMC. For the same compound, the PKC membrane activity (membrane PKC activity; [5]) was 9.4 ± 5.5 nM of ^32P/minute/10^6 PBMC and the “Proliferative response to PHA” value [2] was “enhance proliferation”.

For `N#CC(C#N)=Cc1ccc(O)c(O)c1` [T-23], the “Proliferative response to PHA” value [2] was “enhance proliferation”.

In the case of `N#CC(C#N)=Cc1cc(O)c(O)c(O)c1` [Tyrophostin-25], the “Fold higher affinity for PTK than for PKC and PKA” value (PTK) is given as “more than 30 fold”, the PKC membrane activity (membrane PKC activity; [3]) is given as 2.0 ± 0.9 nM of ^32P/minute/10^6 PBMC and the PKC membrane activity (membrane PKC activity; [4]) is given as 4.6 ± 0.0 nM of ^32P/minute/10^6 PBMC. The PKC membrane activity (membrane PKC activity; [5]) was 7.7 ± 7.7 nM of ^32P/minute/10^6 PBMC.
